Patent US9097673B2, “Processes and kits for determining multi-drug resistance of cells” (ENZO LIFE SCIENCES, INC., priority 2010, dated 2015)

Key:
CHO K1 cell line [1] = test: Dye efflux flow cytometry MDR assay; type: cell-based, hamster; parameters: key to D-value, Verapamil / D-value, Novobiocin: KS D value, 0 to 1; negative if control brighter than sample; conditions: CHO K1, dye efflux
Description: (§1) Kolmogorov-Smirnov statistics measures the difference between two distribution functions and generates a D value ranging between 0 and 1.0, with higher values indicating a greater difference between the distribution functions. The D value generated by the KS statistics was modified by ascribing a negative value if the fluorescence of a negative control (no inhibitor) was brighter than the fluorescence of the sample with inhibitor. The method was one of those recommended by the First International MDR1 Methods Detection Workshop (St. Jude Children's Research Hospital, Memphis, Tenn.).
(§2) Cells were grown in tissue culture dishes and on the day of assay they were trypsinized and washed twice with ice-cold PBS. Post-wash, the cells were re-suspended in cold phenol red indicator-free medium at a density of 1×10^6/ml. For each detection set, eighteen tubes (6 tubes without inhibitor and 3 tubes for each inhibitor tested, in triplicates) each containing 2.5-5×10^5/cells were prepared. Cells were centrifuged at 200×g for 5 min, and after discarding supernatant, re-suspended at 1×10^6/ml in ice-cold indicator-free medium containing Fluo-8™ AM or Rhod-4™ AM probes. Additionally, an aliquot of non-stained cells was prepared for background fluorescence measurements. Cells were incubated with the probe(s) on ice for 60 min, than centrifuged at 200×g for 5 min. After discarding the supernatant, cells were either washed twice with PBS or simply were spun down to remove the excess of the probe and resuspended at 5×10^5 cells/sample in 0.5 ml of following solutions:
(§3) 1. warm (37° C.) indicator-free medium containing vehicle only (3 tubes)
(§4) 2. warm (37° C.) indicator-free medium containing inhibitor (3 tubes for each inhibitor tested)
(§5) 3. ice-cold indicator-free medium (3 tubes)
(§6) Tube sets 1 and 2 were immediately transferred to a water bath (37° C.) and incubated for 90 min. Tube set 3 was kept on ice. Post incubation, 4 ml of ice-cold indicator-free medium was added per tube, tubes were centrifuged at 200×g for 5 min, supernatant was discarded, and cell pellet was re-suspended in the cold indicator-free medium and centrifuged again. Finally, cells were re-suspended in 0.5 ml of cold indicator-free medium and maintained on ice until analysis. Alternatively, cells were analyzed without washing. Flow cytometry experiments were performed as described in Example 3.

HeLa cell line [2] = test: Dye uptake flow cytometry MDR assay; type: cell-based, human; conditions: HeLa, dye uptake
Procedure: (§10) Concentrations of the modulators used in the experiments were non-toxic to the cells (based upon standard 3-(4,5-Dimethylthiazol-2-Yl)-2,5-Diphenyltetrazolium Bromide (MTT) testing, data not shown). Fluo-8™ was used in all experiments at 5 μM, and Rhod-4™—at 4 μM final concentrations.

HeLa cell line [3] = test: Dye efflux flow cytometry MDR assay; type: cell-based, human; parameters: key to D-value, Verapamil / D-value, Novobiocin: KS D value, 0 to 1; negative if control brighter than sample
Description: as §1, §2, §3, §4, §5, §6

A549 cell line [4] = test: Dye efflux flow cytometry MDR assay; type: cell-based, human; parameters: key to D-value, Verapamil / D-value, Novobiocin: KS D value, 0 to 1; negative if control brighter than sample; conditions: A549, dye efflux
Description: as §1, §2, §3, §4, §5, §6

A549 cell line [5] = test: Dye uptake flow cytometry MDR assay; type: cell-based, human; conditions: A549, dye uptake
Procedure: as §10

Hep G2 cells = test: Dye uptake flow cytometry MDR assay; type: cell-based, human; parameters: key: Kolmogorov-Smirnov D statistic comparing fluorescence distributions; conditions: HepG2, dye uptake
Procedure: (§7) Cells were grown on tissue culture dishes and on the day of assay were trypsinized and washed twice with warm (37° C.) phosphate-buffered saline (PBS). Post-wash, the cells were re-suspended in warm phenol red indicator-free medium at a density of 1×10^6/ml. For each detection set, sixteen tubes (5 samples in triplicates plus non-stained control for background fluorescence) in numbered tubes each containing 5×10^5/cells (0.5 ml) were prepared. […] After incubation for 5 min at 37° C., 0.25 ml of warm medium with Fluo-8™ AM probe (5 μM final concentration) or Rhod-4™ AM probe (2 μM final concentration) was added to each tube excluding non-stained control that receives plain medium and cells were incubated for 30 min at 37° C. and analyzed immediately by flow cytometry. In the second set of the tubes, the reaction was stopped by rapid centrifugation (1 min) at relatively low speed (200×g). After wash with ice-cold PBS and discarding the supernatant, cells were re-suspended in 0.5 ml of ice-cold medium and kept on ice until flow cytometry analysis. The third set of cells simply was spun down (1 min, 200×g) to remove the excess of the probe, resuspended in ice-cold medium and kept on ice until flow cytometry analysis.
(§8) Flow cytometry experiments were performed using a FACS Calibur benchtop flow cytometer (BD Biosciences) equipped with a blue (488 nm) laser, and the signals were registered in the FITC (530/30 filter), PE (585/42 filter) and PerCP (670 LP filter) channels. Fluo-8™ dye fluorescence was measured in the FL1 channel, and Rhod-4™ dye fluorescence—in the FL2 channel. Flow cytometry data were analyzed by comparison of median fluorescence or using Kolmogorov-Smirnov statistics [Young, J Histochem Cytochem 25:935-941 (1977)] or by calculating MAF values (MDR Activity Factor) using the following formula: MAF=100*((MFIinh−MFI0)/MFIinh), where MFIinh and MFI0 are mean fluorescence intensity values measured in the presence and absence of inhibitor [Hollo et al., Biochem Piophys Acta. 1191:384-388 (1994)].
(§9) Both human ileocecal colorectal carcinoma cell line HCT-8 (reported to over-express P-gp and, to a lesser extent, MRP [Hunter et al., Br J Cancer. 64:437-444 (1991); Collington et al., Biochem Pharmacol 44:417-424 (1992)] and hepatocellular carcinoma Hep G2 (reported to over-express MRP [Roelofsen et al., Gastroenterology 112:511-521 (1997), Cantz et al., Am J Physiol Gastrointest Liver Physiol. 278:G522-G531 (2000)] were obtained from ATCC. HCT-8 cells were routinely cultured in RPMI-1640 Medium with 2 mM L-glutamine, 10 mM HEPES, 1 mM sodium piruvate, 4.5 g/L glucose, 1.5 g/L sodium bicarbonate (ATCC), supplemented with 10% horse serum (ATCC) and 100 U/ml penicillin, 100 ug/ml streptomycin (Sigma-Aldrich, St. Louis, Mo.). Hep G2 cells were routinely cultured in Eagle's Minimum Essential Medium with low glucose (ATCC), supplemented with 10% heat inactivated fetal bovine serum (ATCC) and 100 U/ml penicillin, 100 ug/ml streptomycin (Sigma-Aldrich, St. Louis, Mo.). Cell cultures were maintained in a humidified incubator at 37° C., with 5% CO2 atmosphere. Stock solutions of the probes and inhibitors were prepared, as described in Examples 2 and 3. Cells were grown in tissue culture dishes and on the day of assay were treated according to a dye uptake protocol and analyzed by flow cytometry, as described in Example 3.

HCT-8 cells = test: Dye uptake flow cytometry MDR assay; type: cell-based, human; parameters: key: Kolmogorov-Smirnov D statistic comparing fluorescence distributions; conditions: HCT-8, dye uptake
Procedure: as §7, §8, §9

CHO K1 cell line [6] = test: Dye uptake flow cytometry MDR assay; type: cell-based, hamster; conditions: CHO K1, dye uptake;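 further: flow cytometry of dye-loaded cells, Kolmogorov-Smirnov D value (0 to 1.0) comparing fluorescence with versus without inhibitor, made negative when the uninhibited control was brighter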
Procedure: as §10

[7] = kept on ice without inhibitor (Table 9)
[8] = representative experiment (Table 9)
[9] = average of three representative experiments (Table 6)
[10] = representative experiment (Table 8)

CC(=O)OCOC(=O)CN(CC(=O)OCOC(C)=O)Cc1cc2c(cc1OC(C)=O)Oc1cc(OC(C)=O)c(CN(CC(=O)OCOC(C)=O)CC(=O)OCOC(C)=O)cc1C21OC(=O)c2ccccc21 [Calcein AM]
D-value, 4° C. (CHO K1 cell line [1]; [7]): 0.65 | D-value, Cyclosporine A (CHO K1 cell line [1]; [8]): 0.31 | D-value, Novobiocin (CHO K1 cell line [1]; [8]): 0.13 | D-value, Probenecid (CHO K1 cell line [1]; [8]): 0.47 | D-value, Verapamil (CHO K1 cell line [1]; [8]): 0.26 | D-value, Fumitremorgan C (HeLa cell line [2]; [9]): 0.03 | D-value, Probenecid (HeLa cell line [2]; [9]): 0.06 | D-value, Verapamil (HeLa cell line [2]; [9]): 0.17 | D-value, Cyclosporine A (HeLa cell line [2]; [10]): 0.14 | D-value, Novobiocin (HeLa cell line [2]; [10]): 0.09 | D-value, Probenecid (HeLa cell line [2]; [10]): 0.09 | D-value, Verapamil (HeLa cell line [2]; [10]): 0.13 | D-value, 4° C. (HeLa cell line [3]; [7]): 0.07 | D-value, Cyclosporine A (HeLa cell line [3]; [8]): 0.08 | D-value, Novobiocin (HeLa cell line [3]; [8]): 0.04 | D-value, Probenecid (HeLa cell line [3]; [8]): 0.62 | D-value, Verapamil (HeLa cell line [3]; [8]): 0.1 | D-value, 4° C. (A549 cell line [4]; [7]): 0.50 | D-value, Cyclosporine A (A549 cell line [4]; [8]): 0.35 | D-value, Novobiocin (A549 cell line [4]; [8]): 0.15 | D-value, Probenecid (A549 cell line [4]; [8]): 0.40 | D-value, Verapamil (A549 cell line [4]; [8]): 0.03 | D-value, Fumitremorgan C (A549 cell line [5]; [9]): 0.04 | D-value, Probenecid (A549 cell line [5]; [9]): 0.36 | D-value, Verapamil (A549 cell line [5]; [9]): 0.17 | D-value, Cyclosporine A (A549 cell line [5]; [10]): 0.47 | D-value, Novobiocin (A549 cell line [5]; [10]): 0.03 | D-value, Probenecid (A549 cell line [5]; [10]): 0.27 | D-value, Verapamil (A549 cell line [5]; [10]): 0.15 | D-value, CyclosporinA (Hep G2 cells): 0.29 | D-value, MK-571 (Hep G2 cells): 0.29 | D-value, Novobiocin (Hep G2 cells): 0.02 | D-value, Verapamil (Hep G2 cells): 0.13 | D-value, CyclosporinA (HCT-8 cells): 0.31 | D-value, MK-571 (HCT-8 cells): 0.16 | D-value, Novobiocin (HCT-8 cells): 0.44 | D-value, Verapamil (HCT-8 cells): 0.71 | D-value, Fumitremorgan C (CHO K1 cell line [6]; [9]): 0.17 | D-value, Probenecid (CHO K1 cell line [6]; [9]): 0.77 | D-value, Verapamil (CHO K1 cell line [6]; [9]): 0.74 | D-value, Cyclosporine A (CHO K1 cell line [6]; [10]): 0.96 | D-value, Novobiocin (CHO K1 cell line [6]; [10]): 0.06 | D-value, Probenecid (CHO K1 cell line [6]; [10]): 0.70 | D-value, Verapamil (CHO K1 cell line [6]; [10]): 0.93
